Experimental data taken from PubChem BioAssay AID248 (DTP/NCI, 2004).
Where “and” joins values, the source holds several entries; their conditions need not be identical. Equal entries are not always repeated. Inconclusive results and toxic doses are left out. Cut-off read from the data, not from the text of the source: active = T/C of 150% or more; inactive = T/C below 125%.

System: L1210 leukemia ip in BDF1 mice, survival T/C
Experiment: NCI In Vivo Anticancer Drug Screen. Data for tumor model L1210 Leukemia (intraperitoneal) in B6D2F1 (BDF1) mice
Settings: endpoint: mean survival time, higher = longer survival
Outline: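 Transplanted-tumor mice were given test agent; controls received vehicle only. Survival readings from the two groups were divided (treated over control).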

[1] = dose: 100.0 mg/kg/injection, schedule: Q04DX002 (ip), vehicle: Klucel (hydroxypropylcellulose) (HPC)
[2] = dose: 200.0 mg/kg/injection, schedule: Q04DX002 (ip), vehicle: Klucel (hydroxypropylcellulose) (HPC)
[3] = dose: 400.0 mg/kg/injection, schedule: Q04DX002 (ip), vehicle: Klucel (hydroxypropylcellulose) (HPC)
[4] = dose: 100.0 mg/kg/injection, schedule: Q01DX009 (ip), vehicle: saline with Tween-80
[5] = dose: 200.0 mg/kg/injection, schedule: Q01DX009 (ip), vehicle: saline with Tween-80
[6] = dose: 400.0 mg/kg/injection, schedule: Q01DX009 (ip), vehicle: saline with Tween-80
[7] = dose: 50.0 mg/kg/injection, schedule: Q01DX001 (ip), vehicle: saline
[8] = dose: 10.0 mg/kg/injection, schedule: Q01DX001 (ip), vehicle: saline
[9] = dose: 20.0 mg/kg/injection, schedule: Q01DX001 (ip), vehicle: saline
[10] = dose: 40.0 mg/kg/injection, schedule: Q01DX001 (ip), vehicle: saline
[11] = dose: 100.0 mg/kg/injection, schedule: Q04DX003 (ip), vehicle: Klucel (hydroxypropylcellulose) (HPC)
[12] = dose: 200.0 mg/kg/injection, schedule: Q04DX003 (ip), vehicle: Klucel (hydroxypropylcellulose) (HPC)
[13] = dose: 400.0 mg/kg/injection, schedule: Q04DX003 (ip), vehicle: Klucel (hydroxypropylcellulose) (HPC)
[14] = dose: 100.0 mg/kg/injection, schedule: Q01DX009 (ip), vehicle: Klucel (hydroxypropylcellulose) (HPC)
[15] = dose: 200.0 mg/kg/injection, schedule: Q01DX009 (ip), vehicle: Klucel (hydroxypropylcellulose) (HPC)
[16] = dose: 400.0 mg/kg/injection, schedule: Q01DX009 (ip), vehicle: Klucel (hydroxypropylcellulose) (HPC)
[17] = dose: 100.0 mg/kg/injection, schedule: Q04DX002 (ip), vehicle: saline
[18] = dose: 100.0 mg/kg/injection, schedule: Q04DX003 (ip), vehicle: saline with Tween-80
[19] = dose: 200.0 mg/kg/injection, schedule: Q04DX003 (ip), vehicle: saline with Tween-80
[20] = dose: 400.0 mg/kg/injection, schedule: Q04DX003 (ip), vehicle: saline with Tween-80
[21] = dose: 100.0 mg/kg/injection, schedule: Q01DX001 (ip), vehicle: saline
[22] = dose: 200.0 mg/kg/injection, schedule: Q01DX001 (ip), vehicle: saline
[23] = dose: 400.0 mg/kg/injection, schedule: Q01DX001 (ip), vehicle: saline
[24] = dose: 100.0 mg/kg/injection, schedule: Q01DX009 (ip), vehicle: saline
[25] = dose: 100.0 mg/kg/injection, schedule: Q04DX003 (ip), vehicle: saline
[26] = dose: 200.0 mg/kg/injection, schedule: Q04DX003 (ip), vehicle: saline
[27] = dose: 400.0 mg/kg/injection, schedule: Q04DX003 (ip), vehicle: saline

Measured: T/C

C=C(OCC)P(=O)(OCCCC)OCCCC
inactive: dose: 100.0 mg/kg/injection, schedule: Q04DX002 (ip), vehicle: saline with Tween-80 100 % of control | dose: 200.0 mg/kg/injection, schedule: Q04DX002 (ip), vehicle: saline with Tween-80 90 % of control | dose: 400.0 mg/kg/injection, schedule: Q04DX002 (ip), vehicle: saline with Tween-80 93 % of control

Nc1ccc(CC(=O)O)c(N)c1
inactive: [1] 87 % of control | [2] 97 % of control | [3] 97 % of control

CC(C)C1=CC23CCC4C(C)(C(=O)O)CCCC4(C)C2CC13 (stereo unspecified)
inactive: [4] 88 % of control | [5] 90 % of control | [6] 91 % of control

CCCCCCCCOc1ccc(C(=O)O)cc1
inactive: [4] 96 % of control | [5] 96 % of control | [6] 92 % of control

S=C(Nc1ccc(Cl)c(Cl)c1)SCc1ccc2c(c1)OCO2
inactive: dose: 37.5 mg/kg/injection, schedule: Q01DX009 (ip), vehicle: saline 120 % of control | dose: 75.0 mg/kg/injection, schedule: Q04DX003 (ip), vehicle: saline with Tween-80 101 % of control | dose: 150.0 mg/kg/injection, schedule: Q01DX009 (ip), vehicle: saline 102 % of control | dose: 150.0 mg/kg/injection, schedule: Q04DX003 (ip), vehicle: saline with Tween-80 104 % of control | dose: 300.0 mg/kg/injection, schedule: Q04DX003 (ip), vehicle: saline with Tween-80 123 % of control

CN(C)CCCN1CC2C3CCCCC3=C3CCCCC3C2C1 (stereo unspecified)
inactive: [7] 98 % of control

COc1ccc(N2CCNCC2)cc1
inactive: dose: 5.0 mg/kg/injection, schedule: Q01DX001 (ip), vehicle: saline 103 % of control | [8] 103 % of control | [9] 97 % of control | [10] 105 % of control

COc1ccc(N2C(=O)OC3(CCN(CCCC(=O)c4ccccc4)CC3)C2=O)cc1
inactive: [11] 101 % of control | [12] 98 % of control | [13] 92 % of control

NC(=O)c1cccc([N+](=O)[O-])c1Br
inactive: [11] 103 % of control | [12] 98 % of control

COc1cc(NCCS(C)(=O)=O)ccc1C(=O)Nc1ccccc1
inactive: [14] 105 % of control | [11] 97 % of control | [15] 97 % of control | [12] 94 % of control | [16] 101 % of control | [13] 94 % of control

Cc1cccc(/C=N\NC(=O)CCCC(=O)N/N=C/c2cccc(C)n2)n1
inactive: dose: 50.0 mg/kg/injection, schedule: Q01DX001 (ip), vehicle: carboxymethylcellulose (CMC) 88 % of control | dose: 100.0 mg/kg/injection, schedule: Q01DX001 (ip), vehicle: carboxymethylcellulose (CMC) 90 % of control

CCCCCCCCC(=O)N1CCN(C)CC1
inactive: [17] 103 % of control

COC(=O)c1cc(Cl)cc(C(=O)OC)c1
inactive: [18] 96 % of control | [19] 93 % of control | [20] 93 % of control

CC(C)(C)c1ccc(OS(=O)(=O)c2cccc([N+](=O)[O-])c2)cc1
inactive: [18] 104 % of control | [19] 99 % of control | [20] 106 % of control

CC(c1ccccc1)n1ccnc1CO (stereo unspecified)
inactive: dose: 50.0 mg/kg/injection, schedule: Q01DX009 (ip), vehicle: Klucel (hydroxypropylcellulose) (HPC) 103 % of control and 112 % of control | dose: 50.0 mg/kg/injection, schedule: Q04DX003 (ip), vehicle: Klucel (hydroxypropylcellulose) (HPC) 98 % of control | [14] 102 % of control and 115 % of control | [11] 106 % of control | [15] 98 % of control

CCCC[Si](C)(C)CCCC
inactive: [21] 103 % of control | [22] 105 % of control | [23] 100 % of control

O=C(CCNc1ccccc1)c1ccccc1
inactive: dose: 50.0 mg/kg/injection, schedule: Q01DX009 (ip), vehicle: saline 95 % of control | [24] 95 % of control | [17] 105 % of control | dose: 200.0 mg/kg/injection, schedule: Q04DX002 (ip), vehicle: saline 108 % of control

Cc1ccc2[nH]c(C)cc(=O)c2c1
inactive: dose: 2.5 mg/kg/injection, schedule: Q01DX009 (ip), vehicle: saline 109 % of control | dose: 5.0 mg/kg/injection, schedule: Q01DX009 (ip), vehicle: saline 95 % of control | [8] 104 % of control | dose: 10.0 mg/kg/injection, schedule: Q01DX009 (ip), vehicle: saline 106 % of control | [9] 101 % of control | [10] 98 % of control

CCOC(=O)C(CCCO)C(=O)OCC
inactive: dose: 100.0 mg/kg/injection, schedule: Q01DX001 (ip), vehicle: saline with Tween-80 98 % of control | dose: 200.0 mg/kg/injection, schedule: Q01DX001 (ip), vehicle: saline with Tween-80 96 % of control | dose: 400.0 mg/kg/injection, schedule: Q01DX001 (ip), vehicle: saline with Tween-80 91 % of control

COc1c([N+](=O)[O-])cc(-c2ccccc2)cc1[N+](=O)[O-]
inactive: [25] 87 % of control | [26] 87 % of control | [27] 87 % of control

C=C(C)C(=O)CC(=O)C1CCc2cc(OC)ccc2C1=O (stereo unspecified)
inactive: dose: 100.0 mg/kg/injection, schedule: Q01DX009 (ip), vehicle: saline sonified 102 % of control | dose: 200.0 mg/kg/injection, schedule: Q01DX009 (ip), vehicle: saline sonified 96 % of control | dose: 400.0 mg/kg/injection, schedule: Q01DX009 (ip), vehicle: saline sonified 100 % of control

CCCCCCCCCCCCCCCCn1/c(=N/N=C/c2ccccc2S(=O)(=O)O)sc2ccccc21
inactive: [14] 106 % of control | [11] 113 % of control | [15] 112 % of control | [12] 106 % of control | [16] 105 % of control | [13] 116 % of control

CCCCCCCCCCN1C(=O)c2ccccc2S1(=O)=O
inactive: [24] 95 % of control | [25] 97 % of control | dose: 200.0 mg/kg/injection, schedule: Q01DX009 (ip), vehicle: saline 97 % of control | [26] 100 % of control | dose: 400.0 mg/kg/injection, schedule: Q01DX009 (ip), vehicle: saline 97 % of control | [27] 95 % of control

N#CC(C#N)=Cc1ccnc2ccccc12
inactive: dose: 10.0 mg/kg/injection, schedule: Q01DX009 (ip), vehicle: saline with Tween-80 101 % of control | dose: 12.5 mg/kg/injection, schedule: Q04DX003 (ip), vehicle: saline with Tween-80 101 % of control | dose: 20.0 mg/kg/injection, schedule: Q01DX009 (ip), vehicle: saline with Tween-80 101 % of control | dose: 25.0 mg/kg/injection, schedule: Q04DX003 (ip), vehicle: saline with Tween-80 104 % of control | dose: 40.0 mg/kg/injection, schedule: Q01DX009 (ip), vehicle: saline with Tween-80 101 % of control | dose: 50.0 mg/kg/injection, schedule: Q04DX003 (ip), vehicle: saline with Tween-80 95 % of control | [18] 105 % of control

CCOC(=O)C1CN(Cc2ccccc2)CCC1=O (stereo unspecified)
inactive: [25] 103 % of control | [26] 106 % of control | [27] 100 % of control

O=S(=O)(O)c1cc(I)c(O)c2ncccc12
inactive: [1] 102 % of control | [2] 95 % of control | [3] 95 % of control

Cc1ccnc(NS(=O)(=O)c2ccc(N=Nc3c(N)[nH]c(=O)[nH]c3=O)cc2)n1
inactive: [21] 100 % of control | [22] 102 % of control | [23] 105 % of control

C[N+](C)(C)CCC[N+](C)(C)CCN1C(=O)c2cccc3cccc(c23)C1=O
inactive: dose: 6.25 mg/kg/injection, schedule: Q01DX001 (ip), vehicle: saline 103 % of control | dose: 12.5 mg/kg/injection, schedule: Q01DX001 (ip), vehicle: saline 103 % of control | dose: 25.0 mg/kg/injection, schedule: Q01DX001 (ip), vehicle: saline 103 % of control | [7] 101 % of control
